Measured values as given in patent US20240382482A1, “PLASMA KALLIKREIN INHIBITORS” (TAKEDA PHARMACEUTICAL COMPANY LIMITED, priority 2021, published 2024).
Counter-ions that a name gives are not always drawn.

Each compound was assayed against human activated kallikrein enzyme (Homo sapiens, UniProt P03952) (assay: Inhibition of human activated kallikrein enzyme, fluorogenic peptide substrate assay (500 pM enzyme format)). Settings: 500 pM activated kallikrein, 300 μM PFR-AMC substrate, 30 min preincubation, 10 min reaction, room temperature; read-out: Primary Dose Response Assay: Average EC50.
Assay type: biochemical
Method: Compounds were evaluated for inhibition of the human activated kallikrein enzyme in two formats of an assay employing a fluorogenic peptide substrate. In one assay format, the concentrations of reagents were as follows: 20 mM Tris pH 7.5, 1 mM EDTA, 150 mM sodium chloride, 0.1% PEG-400, 0.1% Triton X-100, 500 pM activated kallikrein enzyme, 300 μM Pro-Phe-Arg-7-amido-4-methylcoumarin (PFR-AMC) substrate. Prior to reaction initiation with substrate, enzyme and inhibitors were preincubated for 30 min at room temperature. After initiation with substrate, reactions were incubated for 10 min at room temperature and fluorescence emission at 460 nm from 380 nm excitation measured with a microplate reader. In another assay format, the concentrations of reagents were as follows: 20 mM Tris pH 7.5, 1 mM EDTA, 150 mM sodium chloride, 0.1% PEG-400, 0.1% Triton X-100, 5 pM activated kallikrein enzyme, 300 uM PFR-AMC substrate. Prior to reaction initiation with substrate, enzyme and inhibitors were preincubated for 30 min at room temperature. After initiation with substrate, reactions were incubated for 18 hr at room temperature and fluorescence emission at 460 nm from 380 nm excitation measured with a microplate reader.
Table 1 provides the results of the assay in the format with 500 pM activated kallikrein assay. For the compounds listed in Table 1, the EC50 values are reported according to the following ranges: A≤5.0 nM; 5.0 nM<B≤50 nM; 50 nM<C≤500 nM; 500 nM<D≤9000 nM; 9000 nM<E.

human activated kallikrein enzyme, sequence (P03952 391-638 limits assumed): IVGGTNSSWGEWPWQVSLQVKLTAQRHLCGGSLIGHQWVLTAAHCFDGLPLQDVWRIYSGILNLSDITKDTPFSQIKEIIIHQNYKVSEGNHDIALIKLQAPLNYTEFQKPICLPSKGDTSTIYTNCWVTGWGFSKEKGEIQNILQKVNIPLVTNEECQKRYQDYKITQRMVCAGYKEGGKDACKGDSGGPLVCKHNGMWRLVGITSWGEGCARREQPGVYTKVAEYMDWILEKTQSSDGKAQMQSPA
human activated kallikrein enzyme, sequence (P03952 20-390 partner limits assumed): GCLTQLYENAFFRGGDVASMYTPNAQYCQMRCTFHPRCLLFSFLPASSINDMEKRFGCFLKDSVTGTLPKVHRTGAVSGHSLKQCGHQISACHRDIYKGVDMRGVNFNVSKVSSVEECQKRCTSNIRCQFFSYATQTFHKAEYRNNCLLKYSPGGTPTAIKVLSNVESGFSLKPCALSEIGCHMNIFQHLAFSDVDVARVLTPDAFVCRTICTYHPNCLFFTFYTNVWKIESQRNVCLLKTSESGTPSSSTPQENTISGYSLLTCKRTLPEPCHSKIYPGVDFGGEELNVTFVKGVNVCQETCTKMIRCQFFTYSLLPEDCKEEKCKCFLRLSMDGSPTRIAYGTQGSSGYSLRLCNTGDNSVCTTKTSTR

| EC50 [nM] | SMILES |
| --- | --- |
| 500 to 9000 | Nc1nccc2c1CC(C(=O)Nc1cc(NCc3cn4cc(C5CC5)ccc4n3)ccn1)C2 (centres unmarked) [Example 29, 1-amino-N-(4-(((6-cyclopropylimidazo[1,2-a]pyridin-2-yl)methyl)amino)pyridin-2-yl)-6,7-dihydro-5H-cyclopenta[c]pyridine-6-carboxamide] |
| 5 to 50 | CCOC(=O)C(C)(C)Cc1cc(C2CC2)cn2cc(CNc3cc(NC(=O)Cc4ncn5ccc(Cl)cc45)ncn3)nc12 [Example 47, ethyl 3-(2-(((6-(2-(7-chloroimidazo[1,5-a]pyridin-1-yl)acetamido)pyrimidin-4-yl)amino)methyl)-6-cyclopropylimidazo[1,2-a]pyridin-8-yl)-2,2-dimethylpropanoate] |
| 500 to 9000 | O=C(Cn1ccc2ccc(Cl)cc21)Nc1cc(NCc2cn3cc(C4CC4)ccc3n2)ccn1 [Example 115, 2-(6-chloro-1H-indol-1-yl)-N-(4-(((6-cyclopropylimidazo[1,2-a]pyridin-2-yl)methyl)amino)pyridin-2-yl)acetamide] |
| 500 to 9000 | Clc1cccc([C@H]2C[C@@H]2CNc2cc(NCc3cn4cc(C5CC5)ccc4n3)ncn2)c1 [Example 138, N^4-(((1S,2S)-2-(3-chlorophenyl)cyclopropyl)methyl)-N^6-((6-cyclopropylimidazo[1,2-a]pyridin-2-yl)methyl)pyrimidine-4,6-diamine] |
| ≤ 5 | CCOC(=O)CCc1cc(C2CC2)cn2cc(CNc3cc(NC(=O)Cc4ncn5ccc(Cl)cc45)ncn3)nc12 [Example 38, ethyl 3-(2-(((6-(2-(7-chloroimidazo[1,5-a]pyridin-1-yl)acetamido)pyrimidin-4-yl)amino)methyl)-6-cyclopropylimidazo[1,2-a]pyridin-8-yl)propanoate] |
| ≤ 5 | Cc1cc(C(=N)N)cc(C)c1CNc1cc(NCc2cn3cc(C4CC4)ccc3n2)cnn1 [Example 98, 4-(((5-(((6-cyclopropylimidazo[1,2-a]pyridin-2-yl)methyl)amino)pyridazin-3-yl)amino)methyl)-3,5-dimethylbenzimidamide] |
| 5 to 50 | O=C(CNc1cc(Cl)ccc1-n1cnnn1)Nc1cc(NCc2cn3cc(C4CC4)ccc3n2)ccn1 [Example 117, 2-((5-chloro-2-(1H-tetrazol-1-yl)phenyl)amino)-N-(4-(((6-cyclopropylimidazo[1,2-a]pyridin-2-yl)methyl)amino)pyridin-2-yl)acetamide] |
| ≤ 5 | CCOC(=O)c1nc(NCc2c(C)cc(C(=N)N)cc2C)cc(OCc2cn3cc(C4CC4)ccc3n2)n1 [Example 82, ethyl 4-((4-carbamimidoyl-2,6-dimethylbenzyl)amino)-6-((6-cyclopropylimidazo[1,2-a]pyridin-2-yl)methoxy)pyrimidine-2-carboxylate] |
| ≤ 5 | N#Cc1cc(C2CC2)cn2cc(CNc3cc(NC(=O)Cc4ncn5ccc(Cl)cc45)ncn3)nc12 [Example 13, 2-(7-chloroimidazo[1,5-a]pyridin-1-yl)-N-(6-(((8-cyano-6-cyclopropylimidazo[1,2-a]pyridin-2-yl)methyl)amino)pyrimidin-4-yl)acetamide] |
| ≤ 5 | Cc1cc(C(=N)N)cc(C)c1CNc1cc(OCc2cn3cc(C4CC4)ccc3n2)nc(CC(C)(C)C(=O)O)n1 [Example 92, 3-(4-((4-carbamimidoyl-2,6-dimethylbenzyl)amino)-6-((6-cyclopropylimidazo[1,2-a]pyridin-2-yl)methoxy)pyrimidin-2-yl)-2,2-dimethylpropanoic acid] |
| 500 to 9000 | O=C(Cc1ncn2ccc(Cl)cc12)Nc1cc(C(=O)c2cn3cc(C4CC4)ccc3n2)ncn1 [Example 58, 2-(7-chloroimidazo[1,5-a]pyridin-1-yl)-N-(6-(6-cyclopropylimidazo[1,2-a]pyridine-2-carbonyl)pyrimidin-4-yl)acetamide] |
| 500 to 9000 | NC(=O)Cc1cc2c(Cl)cn(-c3cc(NCc4cn5cc(C6CC6)ccc5n4)ccn3)c2cc1F [Example 127, 2-(3-chloro-1-(4-(((6-cyclopropylimidazo[1,2-a]pyridin-2-yl)methyl)amino)pyridin-2-yl)-6-fluoro-1H-indol-5-yl)acetamide] |
| 500 to 9000 | NC(=O)c1ccc(Cl)cc1CC(=O)Nc1cc(NCc2cn3cc(C4CC4)ccc3n2)ncn1 [Example 11, 4-chloro-2-(2-((6-(((6-cyclopropylimidazo[1,2-a]pyridin-2-yl)methyl)amino)pyrimidin-4-yl)amino)-2-oxoethyl)benzamide] |
| > 9000 | C[C@H](C(=O)Nc1cc(NCc2cn3cc(C4CC4)ccc3n2)ncn1)[C@@H](C)c1cccc(Cl)c1 [Example 133, (2S,3R)-3-(3-chlorophenyl)-N-(6-(((6-cyclopropylimidazo[1,2-a]pyridin-2-yl)methyl)amino)pyrimidin-4-yl)-2-methylbutanamide] |
| 5 to 50 | Cc1cc(N)nc(C)c1CNc1cc(C(O)c2cn3cc(C4CC4)ccc3n2)ncn1 (centres unmarked) [Example 64, (6-(((6-amino-2,4-dimethylpyridin-3-yl)methyl)amino)pyrimidin-4-yl)(6-cyclopropylimidazo[1,2-a]pyridin-2-yl)methanol bisformic acid salt] |
| ≤ 5 | O=C(Cc1cnc2[nH]cc(Cl)c2c1)Nc1cc(NCc2cn3cc(C4CC4)ccc3n2)ccn1 [Example 130, 2-(3-chloro-1H-pyrrolo[2,3-b]pyridin-5-yl)-N-(4-(((6-cyclopropylimidazo[1,2-a]pyridin-2-yl)methyl)amino)pyridin-2-yl)acetamide] |
| 5 to 50 | O=C(NCc1ncn2ccc(Cl)cc12)c1cnnc(NCc2cn3cc(C4CC4)ccc3n2)c1 [Example 65, N-((7-chloroimidazo[1,5-a]pyridin-1-yl)methyl)-6-(((6-cyclopropylimidazo[1,2-a]pyridin-2-yl)methyl)amino)pyridazine-4-carboxamide] |
| ≤ 5 | O=C(Cc1ncn2ccc(Cl)cc12)Nc1cc(Cc2cn3cc(C4CC4)ccc3n2)ncn1 [Example 57, 2-(7-chloroimidazo[1,5-a]pyridin-1-yl)-N-(6-((6-cyclopropylimidazo[1,2-a]pyridin-2-yl)methyl)pyrimidin-4-yl)acetamide formic acid salt] |
| ≤ 5 | CN(Cc1cn2cc(C3CC3)cc(N3CCCC3=O)c2n1)c1cc(NC(=O)Cc2ncn3ccc(Cl)cc23)ncn1 [Example 18] |
| 500 to 9000 | O=C(CCc1cccc(Cl)c1)Nc1cc(NCc2cn3cc(C4CC4)ccc3n2)ncn1 [Example 8, 3-(3-chlorophenyl)-N-(6-(((6-cyclopropylimidazo[1,2-a]pyridin-2-yl)methyl)amino)pyrimidin-4-yl)propanamide] |
| 500 to 9000 | CC(Oc1cccc(Cl)c1)C(=O)Nc1cc(NCc2cn3cc(C4CC4)ccc3n2)ncn1 (centres unmarked) [Example 49, 2-(3-chlorophenoxy)-N-(6-(((6-cyclopropylimidazo[1,2-a]pyridin-2-yl)methyl)amino)pyrimidin-4-yl)propanamide formic acid salt] |
| ≤ 5 | Cc1cc(C(=N)N)cc(C)c1CNc1cc(OCc2cn3cc(C4CC4)cc(CC(=O)O)c3n2)ncn1 [Example 95, 2-(2-((6-(4-carbamimidoyl-2,6-dimethylbenzylamino)pyrimidin-4-yloxy)methyl)-6-cyclopropylimidazo[1,2-a]pyridin-8-yl)acetic acid] |
| ≤ 5 | CCOC(=O)c1nc(NCc2cn3cc(C4CC4)ccc3n2)cc(NC(=O)Cc2ncn3ccc(Cl)cc23)n1 [Example 20, ethyl 4-(2-(7-chloroimidazo[1,5-a]pyridin-1-yl)acetamido)-6-(((6-cyclopropylimidazo[1,2-a]pyridin-2-yl)methyl)amino)pyrimidine-2-carboxylate] |
